In ChEMBL document CHEMBL1156835, “Discovery of new SCH 39166 analogs as potent and selective dopamine D1 receptor antagonists” (Bioorg Med Chem Lett, 2010):

Columns and labels:
D(1A) dopamine receptor = D(1A) dopamine receptor (Homo sapiens, UniProt P21728); assay: Binding affinity to dopamine D1 receptor
D(2) dopamine receptor = D(2) dopamine receptor (Homo sapiens, UniProt P14416); assay: Binding affinity to dopamine D2 receptor
[1] = Selectivity ratio, Ki for dopamine D1 receptor to Ki for dopamine D2 receptor
D(1B) dopamine receptor = D(1B) dopamine receptor (Homo sapiens, UniProt P21918); assay: Binding affinity to dopamine D5 receptor
Sequence of D(1B) dopamine receptor (P21918 whole entry): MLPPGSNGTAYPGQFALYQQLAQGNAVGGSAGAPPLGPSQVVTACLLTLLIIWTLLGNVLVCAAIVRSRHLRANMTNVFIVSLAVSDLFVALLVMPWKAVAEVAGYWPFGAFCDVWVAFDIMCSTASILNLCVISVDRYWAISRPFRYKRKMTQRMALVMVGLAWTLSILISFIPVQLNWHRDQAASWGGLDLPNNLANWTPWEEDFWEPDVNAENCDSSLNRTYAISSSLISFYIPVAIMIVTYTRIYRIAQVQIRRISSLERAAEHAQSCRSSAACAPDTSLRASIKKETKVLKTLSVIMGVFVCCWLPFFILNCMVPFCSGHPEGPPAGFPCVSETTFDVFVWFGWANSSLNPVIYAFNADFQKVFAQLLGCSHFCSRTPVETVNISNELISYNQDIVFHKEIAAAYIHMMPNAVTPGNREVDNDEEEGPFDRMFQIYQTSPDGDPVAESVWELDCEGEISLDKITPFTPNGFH

D(4) dopamine receptor = biological target: T1, D(4) dopamine receptor (Homo sapiens, UniProt P21917); assay: Binding affinity to dopamine D4 receptor
T1 sequence (P21917 whole entry): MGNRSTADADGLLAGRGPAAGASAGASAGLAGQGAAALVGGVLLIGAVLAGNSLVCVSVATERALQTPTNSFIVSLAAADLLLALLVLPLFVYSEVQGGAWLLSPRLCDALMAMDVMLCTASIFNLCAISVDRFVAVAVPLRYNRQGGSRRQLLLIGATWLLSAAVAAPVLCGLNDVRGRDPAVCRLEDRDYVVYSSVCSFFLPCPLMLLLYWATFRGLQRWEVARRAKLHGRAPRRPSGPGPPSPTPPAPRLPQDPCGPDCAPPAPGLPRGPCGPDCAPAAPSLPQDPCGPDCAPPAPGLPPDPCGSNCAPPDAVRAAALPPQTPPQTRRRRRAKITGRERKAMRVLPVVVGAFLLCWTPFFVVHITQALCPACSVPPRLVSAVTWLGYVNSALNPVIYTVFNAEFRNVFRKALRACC

[2] = AUC in rat; assay type: ADME, organism-based; details: plasma
[3] = Oral bioavailability in rat; assay type: ADME, organism-based; details: in vivo

Sequence of D(1A) dopamine receptor (P21728 whole entry): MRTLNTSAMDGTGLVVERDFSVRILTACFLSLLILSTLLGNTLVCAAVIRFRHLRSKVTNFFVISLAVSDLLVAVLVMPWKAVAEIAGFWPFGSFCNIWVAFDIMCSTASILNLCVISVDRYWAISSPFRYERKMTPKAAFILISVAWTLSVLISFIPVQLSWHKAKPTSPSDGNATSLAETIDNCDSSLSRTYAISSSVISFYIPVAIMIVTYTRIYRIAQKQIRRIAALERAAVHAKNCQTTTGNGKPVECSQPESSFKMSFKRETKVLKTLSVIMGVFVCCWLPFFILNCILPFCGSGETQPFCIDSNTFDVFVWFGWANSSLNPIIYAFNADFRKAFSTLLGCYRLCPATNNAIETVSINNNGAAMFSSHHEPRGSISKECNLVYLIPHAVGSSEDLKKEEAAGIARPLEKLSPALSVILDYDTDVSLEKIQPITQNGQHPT
Sequence of D(2) dopamine receptor (P14416 whole entry): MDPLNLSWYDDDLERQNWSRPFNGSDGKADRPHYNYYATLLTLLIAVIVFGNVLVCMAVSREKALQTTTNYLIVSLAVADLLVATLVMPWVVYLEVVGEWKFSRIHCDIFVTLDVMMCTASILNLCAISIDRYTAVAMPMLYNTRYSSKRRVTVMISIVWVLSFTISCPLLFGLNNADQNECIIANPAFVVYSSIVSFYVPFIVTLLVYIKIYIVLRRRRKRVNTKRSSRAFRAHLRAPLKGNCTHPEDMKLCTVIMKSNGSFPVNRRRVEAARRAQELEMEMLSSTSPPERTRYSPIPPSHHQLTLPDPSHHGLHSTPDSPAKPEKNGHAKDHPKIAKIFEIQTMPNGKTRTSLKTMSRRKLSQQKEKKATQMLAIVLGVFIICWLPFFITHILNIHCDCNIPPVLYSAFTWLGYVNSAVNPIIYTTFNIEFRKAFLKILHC

SMILES | Ki (D(1A) dopamine receptor) [nM] | Ki (D(2) dopamine receptor) [nM] | Ratio Ki [1] | Ki (D(1B) dopamine receptor) [nM] | Ki (D(4) dopamine receptor) [µM] | AUC [2] [ng·h/mL] | bioavailability [3] [%]
CN1CCc2cc(Cl)c(O)cc2[C@H]2c3cc(CN4CCN(c5ccccn5)CC4)ccc3CC[C@@H]21 | 152 | 1.3 | 117 |  |  |  | 
CN1CCc2cc(Cl)c(O)cc2[C@@H](c2ccc(CN(C3CCC3)S(C)(=O)=O)cc2)C1 | 0.5 | 2000 |  | 5.9 | > 10 |  | 
CN1CCc2cc(Cl)c(O)cc2[C@H]2c3cccc(NC(=O)Nc4c(Cl)cccc4Cl)c3CC[C@@H]21 | 7.1 | 566 |  |  |  |  | 
CCS(=O)(=O)Nc1ccc2c(c1)CC[C@H]1[C@H]2c2cc(O)c(Cl)cc2CCN1C | 0.7 | 3300 |  | 5.6 | > 10 |  | 
CCC(=O)Nc1cccc2c1CC[C@H]1[C@H]2c2cc(O)c(Cl)cc2CCN1C | 2.3 | 500 |  |  |  |  | 
CN1CCc2cc(Cl)c(O)cc2[C@H]2c3cc(CN4CCCCC4)ccc3CC[C@@H]21 | 225 | 26 | 8.7 |  |  |  | 
CN1CCc2cc(Cl)c(O)cc2[C@H]2c3cccc(NS(C)(=O)=O)c3CC[C@@H]21 | 4.7 | 1000 |  |  |  |  | 
CN1CCc2cc(Cl)c(O)cc2[C@H]2c3ccc(NC(=O)C4CC4)cc3CC[C@@H]21 | 2.3 | > 10000 |  |  |  |  | 
CN1CCc2cc(Cl)c(O)cc2[C@@H](c2ccc(CN(Cc3ccccc3)c3ccc(F)cc3F)cc2)C1 | 0.7 | 552 |  |  |  |  | 
CN1CCc2cc(Cl)c(O)cc2[C@@H](c2ccc(CN(C)S(C)(=O)=O)cc2)C1 | 0.5 | 6000 |  |  |  |  | 
CCNC(=O)Nc1ccc2c(c1)CC[C@H]1[C@H]2c2cc(O)c(Cl)cc2CCN1C | 1.5 | 6000 |  | 7.1 | > 10 |  | 
CCS(=O)(=O)Nc1cccc2c1CC[C@H]1[C@H]2c2cc(O)c(Cl)cc2CCN1C | 5.8 | 618 |  |  |  |  | 
CN1CCc2cc(Cl)c(O)cc2[C@@H](c2ccc(CNc3ccccc3)cc2)C1 | 2 | 2000 |  |  |  |  | 
CN1CCc2cc(Cl)c(O)cc2[C@H]2c3cccc(N)c3CC[C@@H]21 | 2.8 | 2100 |  | 7 | > 10 |  | 
CN1CCc2cc(Cl)c(O)cc2[C@@H](c2ccc(CNC3CCC3)cc2)C1 |  | 2000 |  | 3.9 | > 10 |  | 
CN1CCc2cc(Cl)c(O)cc2[C@H]2c3ccc(NC(=O)Nc4c(Cl)cccc4Cl)cc3CC[C@@H]21 | 0.7 | 1090 |  |  |  |  | 
CN1CCc2cc(Cl)c(O)cc2[C@H]2c3ccc(N)cc3CC[C@@H]21 | 7 | 5400 |  | 8.3 | > 10 |  | 
CCOC(=O)Nc1ccc2c(c1)CC[C@H]1[C@H]2c2cc(O)c(Cl)cc2CCN1C | 1.4 | 3900 |  | 3.3 | > 10 |  | 
CCNC(=O)Nc1cccc2c1CC[C@H]1[C@H]2c2cc(O)c(Cl)cc2CCN1C | 2.4 | 900 |  |  |  |  | 
CN1CCc2cc(Cl)c(O)cc2[C@@H](c2ccc(CN(C)S(=O)(=O)c3ccccc3)cc2)C1 | 0.6 | 331 |  | 1.2 | 4.33 |  | 
CC(=O)N(Cc1ccc([C@H]2CN(C)CCc3cc(Cl)c(O)cc32)cc1)C1CCC1 | 0.2 | 159 |  | 13 | > 10 |  | 
CN1CCc2cc(Cl)c(O)cc2[C@H]2c3ccccc3CC[C@@H]21 [ECOPIPAM] |  |  |  |  |  | 156 | 0.6
CN1CCc2cc(Cl)c(O)cc2[C@H]2c3cccc(NC(=O)C4CC4)c3CC[C@@H]21 | 5.7 | 2140 |  |  |  |  | 
CN1CCc2cc(Cl)c(O)cc2[C@H]2c3ccc(NS(C)(=O)=O)cc3CC[C@@H]21 | 0.5 | 3000 |  | 5.8 | > 10 | 2490 | 29
